Experimental data from patent publication US8076324B2, “Di(hetero)arylcyclohexane derivatives, their preparation, their use and pharmaceutical compositions comprising them” (Sanofi-Aventis, priority 2007, dated 2011).

molecular target: T1, myocardial ATP-sensitive potassium channel (SUR2A/Kir6.2) (UniProt Q61743+Q63563); assay: Rubidium efflux test on HEK293 cells transfected with SUR2A and Kir6.2 (myocardial action); type: cell-based, SUR2A from the rat, Kir6.2 from the mouse; conditions: HEK293 cells transfected with SUR2A/Kir6.2; KATP channels opened by rilmakalim; 25 min incubation; read-out: IC50 values for the inhibition of the rubidium efflux
T1 construct: expressed in transfected cells
Protocol: 1) Action on the SUR2A/Kir6.2 potassium channel (myocardial action) The action of the compounds on the ion transport through the myocardial ATP-sensitive potassium channel (SUR2A/Kir6.2) was determined in the rubidium efflux test system described below on human embryonic kidney cells HEK293 which were transfected with the components SUR2A and Kir6.2 (cf. Weyermann et al., Naunyn-Schmiedeberg's Arch. Pharmacol. 369, 374-381 (2004)).
The HEK293 cells were cultured at 37° C. in a humidified air atmosphere with 7% carbon dioxide in minimal essential medium with Earle's salts and L-glutamine (MEM, Gibco), which was supplemented with 10% fetal calf serum and zeozin (0.36 mg/ml) and geneticin (0.75 mg/ml). The transfection of the cells and the preparation of a cell line with stable expression of Kir6.2 from the mouse (accession number AF037313) and SUR2A from the rat (accession number D83598/L40624) were carried out as described in Giblin et al., J. Biol. Chem. 274, 22652-22659 (1999).
60 000 transfected cells per well were inoculated into a poly-D-lysine-coated 96-well microtiter plate (Greiner #650 201). After incubation for 24 h at 37° C., the cells were washed three times with buffer 1 (150 mM NaCl, 2 mM CaCl2, 0.8 mM NaH2PO4, 1 mM MgCl2, 5 mM glucose, 25 mM HEPES, pH=7.4). Subsequently, the buffer solution was replaced by 100 μl of rubidium loading buffer (buffer 1 with 5.4 mM RbCl) and the cells were incubated for a further 3 h at 37° C. The rubidium loading buffer was then removed by washing the cells three times with 200 μl each of potassium chloride wash buffer (buffer 1 with 5.4 mM KCl). After addition of the test substances (70 μl; dissolved in potassium chloride wash buffer with addition of DMSO), the KATP channels of the cells were opened by addition of 70 μl of rilmakalim (2 μM) (cf. Krause et al., Pflügers Arch. 429, 625-635 (1995)) and the cells were incubated at 37° C. for 25 min. Subsequently, the cell supernatants were transferred to a new 96-well microtiter plate and the cells were lyzed by addition of 200 μl of lysis buffer (buffer 1 with 1% Triton X-100). The concentrations of Rb^+ in the cell supernatant and in the cell lyzate were measured by means of atomic absorption spectroscopy using an Al 1200 apparatus (Aurora Instruments Ltd.).
The Rb^+ efflux rate was calculated as [Rb^+SN]/[Rb^+total], wherein [Rb^+SN] is the amount of Rb^+ in the cell supernatant and [Rb^+total] is the sum of the amounts of Rb^+ in the cell supernatant and cell lyzate. IC50 values for the inhibition of the rubidium efflux were calculated with the aid of the Hill equation.

T1 sequence (Q63563 whole entry): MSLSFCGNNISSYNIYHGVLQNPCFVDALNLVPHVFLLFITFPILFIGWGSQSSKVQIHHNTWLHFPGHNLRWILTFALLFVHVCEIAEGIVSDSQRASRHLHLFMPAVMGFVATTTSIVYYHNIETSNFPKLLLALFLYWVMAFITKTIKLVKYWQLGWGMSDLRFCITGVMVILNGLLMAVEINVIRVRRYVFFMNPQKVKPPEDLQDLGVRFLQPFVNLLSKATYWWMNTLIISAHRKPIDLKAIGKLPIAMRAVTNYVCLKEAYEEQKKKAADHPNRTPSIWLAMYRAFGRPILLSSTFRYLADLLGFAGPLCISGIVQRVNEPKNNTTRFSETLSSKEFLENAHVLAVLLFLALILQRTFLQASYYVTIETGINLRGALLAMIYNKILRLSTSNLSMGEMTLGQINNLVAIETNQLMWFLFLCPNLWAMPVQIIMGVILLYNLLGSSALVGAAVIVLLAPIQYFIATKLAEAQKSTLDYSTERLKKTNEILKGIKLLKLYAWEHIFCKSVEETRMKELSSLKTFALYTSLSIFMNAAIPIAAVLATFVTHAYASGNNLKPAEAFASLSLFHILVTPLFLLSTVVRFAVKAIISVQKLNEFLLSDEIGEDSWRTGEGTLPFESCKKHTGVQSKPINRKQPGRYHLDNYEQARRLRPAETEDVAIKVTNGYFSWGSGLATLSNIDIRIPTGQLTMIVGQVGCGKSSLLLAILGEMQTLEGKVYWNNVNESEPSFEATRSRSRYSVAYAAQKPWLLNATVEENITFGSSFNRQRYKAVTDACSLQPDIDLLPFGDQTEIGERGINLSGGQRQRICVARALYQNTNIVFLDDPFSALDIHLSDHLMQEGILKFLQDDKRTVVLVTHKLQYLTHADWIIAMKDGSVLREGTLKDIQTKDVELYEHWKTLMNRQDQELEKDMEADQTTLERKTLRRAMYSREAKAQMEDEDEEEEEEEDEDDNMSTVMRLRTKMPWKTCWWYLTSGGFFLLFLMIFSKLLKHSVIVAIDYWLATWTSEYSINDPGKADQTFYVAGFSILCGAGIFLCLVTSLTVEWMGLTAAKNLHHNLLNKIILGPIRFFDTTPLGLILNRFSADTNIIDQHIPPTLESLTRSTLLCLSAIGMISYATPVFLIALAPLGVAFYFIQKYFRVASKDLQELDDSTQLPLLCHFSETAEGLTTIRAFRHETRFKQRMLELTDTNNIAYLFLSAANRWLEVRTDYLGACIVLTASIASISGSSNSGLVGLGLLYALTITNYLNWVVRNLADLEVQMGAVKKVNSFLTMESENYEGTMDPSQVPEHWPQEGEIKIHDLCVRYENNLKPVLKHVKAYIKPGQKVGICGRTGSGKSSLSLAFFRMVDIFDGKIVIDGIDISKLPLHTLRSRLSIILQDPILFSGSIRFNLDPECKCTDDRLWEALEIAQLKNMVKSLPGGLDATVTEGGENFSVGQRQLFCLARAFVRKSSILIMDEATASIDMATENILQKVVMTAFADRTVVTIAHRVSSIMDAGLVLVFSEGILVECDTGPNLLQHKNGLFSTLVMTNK
T1 sequence (Q61743 whole entry): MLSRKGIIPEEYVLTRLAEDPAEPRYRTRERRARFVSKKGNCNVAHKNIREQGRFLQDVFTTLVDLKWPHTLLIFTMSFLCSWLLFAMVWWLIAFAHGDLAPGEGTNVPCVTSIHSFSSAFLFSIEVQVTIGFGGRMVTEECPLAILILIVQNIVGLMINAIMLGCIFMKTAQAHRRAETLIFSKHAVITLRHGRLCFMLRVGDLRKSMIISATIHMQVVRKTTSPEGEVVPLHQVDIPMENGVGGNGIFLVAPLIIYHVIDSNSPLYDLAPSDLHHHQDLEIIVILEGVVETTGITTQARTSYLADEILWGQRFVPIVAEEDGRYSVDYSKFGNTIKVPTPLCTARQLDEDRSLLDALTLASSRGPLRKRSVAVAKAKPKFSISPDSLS

Structure (SMILES)	IC50 [nM]
COC1(c2ccc(F)cc2)CCC(C(=O)O)(c2ccccc2)CC1 (centres unmarked) [Example 92, 4-(4-Fluorophenyl)-4-methoxy-1-phenylcyclohexanecarboxylic Acid]	< 1000
O=C(O)C1(c2ccccc2)CCC(O)(c2ccc(F)cc2)CC1 (centres unmarked) [Example 93]	< 1000
O=C(O)C1(c2ccccc2)CCC(O)(c2ccc(F)cc2F)CC1 (centres unmarked) [Example 95]	< 1000
O=C(O)C1(c2ccccc2)CCC(O)(c2c(F)cc(F)cc2F)CC1 (centres unmarked) [Example 98]	< 1000
Cc1ccc(C2(O)CCC(C(=O)O)(c3ccccc3)CC2)cc1F (centres unmarked) [Example 100]	< 1000
O=C(O)C1(c2ccccc2)CCC(O)(c2ccc(C(F)(F)F)cc2)CC1 (centres unmarked) [Example 101]	< 1000
O=C(O)C1(c2ccccc2)CCC(O)(c2cccc(C(F)(F)F)c2)CC1 (centres unmarked) [Example 102]	< 1000
O=C(O)C1(c2ccccc2)CCC(O)(c2ccc(C(F)(F)F)cc2F)CC1 (centres unmarked) [Example 103]	< 1000
O=C(O)C1(c2ccccc2)CCC(O)(c2ccc(Cl)c(C(F)(F)F)c2)CC1 (centres unmarked) [Example 104]	< 1000
O=C(O)C1(c2ccccc2)CCC(O)(c2ccc(Br)cc2)CC1 (centres unmarked) [Example 105]	< 1000
COC1(c2cccc(F)c2)CCC(C(=O)O)(c2ccccc2)CC1 (centres unmarked) [Example 119]	< 1000
COC1(c2cccc(F)c2F)CCC(C(=O)O)(c2ccccc2)CC1 (centres unmarked) [Example 120]	< 1000
COC1(c2ccc(C)c(F)c2)CCC(C(=O)O)(c2ccccc2)CC1 (centres unmarked) [Example 123]	< 1000
COC1(c2ccc(C(F)(F)F)cc2)CCC(C(=O)O)(c2ccccc2)CC1 (centres unmarked) [Example 124]	< 1000
COC1(c2cccc(C(F)(F)F)c2)CCC(C(=O)O)(c2ccccc2)CC1 (centres unmarked) [Example 125]	< 1000
COc1ccc(C2(OC)CCC(C(=O)O)(c3ccccc3)CC2)cc1F (centres unmarked) [Example 131]	< 1000
C=Cc1ccccc1C1(OC)CCC(C(=O)O)(c2ccccc2)CC1 (centres unmarked) [Example 135]	< 1000
COC1(c2cnc3ccccc3c2)CCC(C(=O)O)(c2ccccc2)CC1 (centres unmarked) [Example 136]	< 1000
COC1(c2ccc(Cl)cn2)CCC(C(=O)O)(c2ccccc2)CC1 (centres unmarked) [Example 137]	< 1000
CCOC1(c2ccc(F)cc2)CCC(C(=O)O)(c2ccccc2)CC1 (centres unmarked) [Example 141]	< 1000
CCCOC1(c2ccc(F)cc2)CCC(C(=O)O)(c2ccccc2)CC1 (centres unmarked) [Example 148]	< 1000
O=C(O)C1(c2ccccc2)CCC(OCC2CC2)(c2ccc(F)cc2)CC1 (centres unmarked) [Example 150]	< 1000
O=C(O)C1(c2ccccc2)CCC(OCC2CC2)(c2cnc3ccccc3c2)CC1 (centres unmarked) [Example 152]	< 1000
CSc1ccc(C2(O)CCC(C(=O)O)(c3ccccc3)CC2)cc1 (centres unmarked) [Example 161, 4-Hydroxy-4-(4-methylsulfanylphenyl)-1-phenylcyclohexanecarboxylic Acid]	< 1000
COC1(c2ccc(SC)cc2)CCC(C(=O)O)(c2ccccc2)CC1 (centres unmarked) [Example 163, 4-Methoxy-4-(4-methylsulfanylphenyl)-1-phenylcyclohexanecarboxylic Acid]	< 1000
CCOC1(c2cccc(S(C)(=O)=O)c2)CCC(C(=O)O)(c2ccccc2)CC1 (centres unmarked) [Example 167]	< 1000
CCCOC1(c2cccc(S(C)(=O)=O)c2)CCC(C(=O)O)(c2ccccc2)CC1 (centres unmarked) [Example 168]	< 1000

Structure (SMILES)	IC50 [nM]
COC1(c2ccccc2S(C)(=O)=O)CCC(C(=O)O)(c2ccccc2)CC1 (centres unmarked) [Example 172]	< 1000
CCOC1(c2ccccc2S(C)(=O)=O)CCC(C(=O)O)(c2ccccc2)CC1 (centres unmarked) [Example 173]	< 1000
CCCOC1(c2ccccc2S(C)(=O)=O)CCC(C(=O)O)(c2ccccc2)CC1 (centres unmarked) [Example 174]	< 1000
O=C(O)C1(c2ccccc2)CCC(OCC2CC2)(c2cccc(C3CC3)c2)CC1 (centres unmarked) [Example 182, 4-Cyclopropylmethoxy-4-(3-cyclopropylphenyl)-1-phenylcyclohexanecarboxylic Acid]	< 1000
COC1(c2ccc(F)cc2)CCC(C(=O)O)(c2cccc(F)c2)CC1 (centres unmarked) [Example 234]	< 1000
COC1(c2ccc(F)cc2)CCC(C(=O)O)(c2ccccc2F)CC1 (centres unmarked) [Example 235]	< 1000
COC1(c2ccc(F)cc2)CCC(C(=O)O)(c2ccc(OC(F)(F)F)cc2)CC1 (centres unmarked) [Example 236]	< 1000
COC1(c2ccc(F)cc2)CCC(C(=O)O)(c2cccc(OC(F)(F)F)c2)CC1 (centres unmarked) [Example 237]	< 1000
COC1(c2ccc(F)cc2)CCC(C(=O)O)(c2ccccc2OC(F)(F)F)CC1 (centres unmarked) [Example 238]	< 1000
COC1(c2ccc(F)cc2)CCC(C(=O)O)(c2ccc(C)cc2)CC1 (centres unmarked) [Example 239]	< 1000
CCCOC1(c2ccc(F)cc2SC)CCC(C(=O)O)(c2ccc(F)cc2)CC1 (centres unmarked) [Example 242]	< 1000
CSc1cc(F)ccc1C1(OCC2CC2)CCC(C(=O)O)(c2ccc(F)cc2)CC1 (centres unmarked) [Example 243]	< 1000
CSc1ccc(F)cc1C1(OCC2CC2)CCC(C(=O)O)(c2ccc(F)cc2)CC1 (centres unmarked) [Example 247]	< 1000
CCCOC1(c2cc(F)ccc2SC)CCC(C(=O)O)(c2ccc(F)cc2)CC1 (centres unmarked) [Example 248]	< 1000
O=C(O)C1(c2ccc(F)cc2)CCC(OCC2CC2)(c2ccc(F)cc2)CC1 (centres unmarked) [Example 249]	< 1000
CS(=O)(=O)c1cc(F)ccc1C1(OCC2CC2)CCC(C(=O)O)(c2ccc(F)cc2)CC1 (centres unmarked) [Example 253]	< 1000
CS(=O)(=O)c1ccccc1C1(OCC2CC2)CCC(C(=O)O)(c2ccc(F)cc2)CC1 (centres unmarked) [Example 254]	< 1000
CS(=O)(=O)c1ccc(F)cc1C1(OCC2CC2)CCC(C(=O)O)(c2ccc(F)cc2)CC1 (centres unmarked) [Example 258]	< 1000
O=C(O)[C@]1(c2ccc(F)cc2)CC[C@@](OCC2CC2)(c2ccc(F)cn2)CC1 [Example 263, Cis-4-Cyclopropylmethoxy-1-(4-fluorophenyl)-4-(5-fluoropyridin-2-yl)cyclohexanecarboxylic Acid]	< 1000
O=C(O)[C@]1(c2ccccc2)CC[C@@](OCC2CC2)(c2ccc(F)cn2)CC1 [Example 267, Cis-4-Cyclopropylmethoxy-4-(5-fluoropyridin-2-yl)-1-phenylcyclohexanecarboxylic Acid]	< 1000
O=C(O)[C@]1(c2ccccc2)CC[C@](OCC2CC2)(c2nc(-c3ccccc3)n(CC3CC3)n2)CC1 [Example 270, Trans-4-Cyclopropylmethoxy-4-(1-cyclopropylmethyl-5-phenyl-1H-[1,2,4]triazol-3-yl)-1-phenylcyclohexanecarboxylic Acid]	< 1000
O=C(O)C1(c2ccccc2)CCC(OCC2CC2)(c2ccc(-c3ccc(F)c(Br)c3)cc2)CC1 (centres unmarked) [Example 275]	< 1000
O=C(O)[C@]1(c2ccccc2)CC[C@](OCC2CC2)(c2nc(C3CC3)n(CC3CC3)n2)CC1 [Example 296-2, Trans-4-(5-Cyclopropyl-1-cyclopropylmethyl-1H-[1,2,4]triazol-3-yl)-4-cyclopropylmethoxy-1-phenylcyclohexanecarboxylic Acid]	< 1000
CS(=O)(=O)c1cc(F)cc([C@]2(OCC3CC3)CC[C@](C(=O)O)(c3ccc(F)cc3)CC2)c1 [Example 301, Cis-4-Cyclopropylmethoxy-4-(3-fluoro-5-methanesulfonylphenyl)-1-(4-fluorophenyl)cyclohexanecarboxylic Acid]	< 1000
CC(C)S(=O)(=O)c1cc(F)cc([C@]2(OCC3CC3)CC[C@](C(=O)O)(c3ccc(F)cc3)CC2)c1 [Example 304-1, Cis-4-Cyclopropylmethoxy-1-(4-fluorophenyl)-4-[3-fluoro-5-(propane-2-sulfonyl)phenyl]cyclohexanecarboxylic Acid]	< 1000
Cc1c(F)cc([C@]2(OCC3CC3)CC[C@](C(=O)O)(c3ccc(F)cc3)CC2)cc1S(=O)(=O)C(C)(C)C [Example 304-2, Cis-4-Cyclopropylmethoxy-4-[3-fluoro-4-methyl-5-(2-methylpropane-2-sulfonyl)phenyl]-1-(4-fluorophenyl)cyclohexanecarboxylic Acid]	< 1000
